Source: US9814732B2, “Ulipristal acetate for prevention and treatment of breast tumors” (LABORATOIRE HRA-PHARMA, priority 2012, dated 2017)

Experiments:
[1] = test system: human breast tissue carrying BRCA1 mutations, xenografts; assay: Ki67 mitotic index in BRCA1 mutated human breast tissue xenografted in nude mice; assay type: in vivo; conditions: E2+P+UPA vs E2+P, lobular and ductal cells, 28 days
Method: Mitotic index was calculated using the Ki67 antibody, and was determined for each breast tissue grafted into mice. Immunohistochemical analyses were performed using the BOND-MAX workstation (Leica, Nanterre, France). Paraffin sections of breast tissue xenografts were de-waxed and rehydrated before antigen retrieval using citrate retrieval solution (pH 6.0) for Ki67 antibody or EDTA retrieval solution (pH 9.0) for PR and ERalpha antibodies, for 30 min. Sections were then incubated with Ki67 at 1:100 (Novocastra, NCL5 L-Ki67-MM1), PR at 1:80 (Biogenex, MU-328-UC) or ER at 1:300 (Novocastra, NCL-L6 ER-6F11) monoclonal antibodies. For signal detection, the Kit Bond Polymer Refire Detection was used. Reagents were purchased from Menarini-Diagnostic (Rungis, France). A negative control (omitting the first antibody) was included in each set. For each marker, determination of the ratio of positive cells was performed on a total of 1 000 lobular and 1 000 ductal luminal cells in the 4 breast tissue fragments grafted into each mouse. For each experiment, the final percentages for each treatment were the mean of percentages obtained in the four mice per group.
Mutated breast tissue samples were obtained from 5 women (36-57 years old) carrying mutations for BRCA1.
Xenografts were performed as described above (Example 2). […]

[2] = test system: PR target genes (FASN, cyclin A, BCL2, ALPL); assay: qRT-PCR mRNA expression of PR target genes in T-47D cells; assay type: cell-based, human
Method: (§1) After seeding, cells were cultured for 24 h in serum and phenol red free medium. Then treatments were carried out in a phenol red free medium containing 5% dextran-charcoal stripped serum. Cells were treated with P or DEX (100 nM), alone or in combination with UPA, RU (1 nM to 1 μM) or CDB-3877 (100 nM). Control cells were treated with ethanol, at […] 1:1000 final ethanol concentration alone as vehicle or E2 (10 nM).
(§2) Total RNA was extracted using TriZOL Reagent (Invitrogen, Cergy-Pontoise, France).
(§3) 2 μg of total RNA was subjected to reverse transcription (RT) using random primers for 1 h at 37° C. 2 μl of RT product was diluted (1:10) and subjected to quantitative PCR using sequence specific primers (300 nM) and Brillant SYBR GREEN QPCR master mix (Fermentas, Saint-Rémy-lès-Chevreuse, France) on an Mx3000P apparatus (Agilent Technologies, Massy, France). Conditions were 1 cycle at 95° C. for 10 min followed by 40 cycles at 95° C. for 30 sec, 60° C. for 1 min and 72° C. for 30 sec. Gene expression values were normalized to the housekeeping gene 36B4. Time of steroid treatment was chosen to get the optimal stimulation for a given gene. ALPL and G0S8 mRNA were analyzed after 6 h of treatment. IEX-1, FASN, and BCL2 were analyzed after 24 h of treatment. Cyclin A mRNA was analyzed after 24 h for GR responses or 48 h for PR responses.

PR = target: T1, PR (Homo sapiens, UniProt P06401); assay: MMTV-Luc reporter gene transactivation in T-47D cells; assay type: cell-based; set-up: constitutively expressed high amounts of PR (progesterone receptor); endogenous in cells; host or cells: T-47D
T1 sequence (P06401 1-933): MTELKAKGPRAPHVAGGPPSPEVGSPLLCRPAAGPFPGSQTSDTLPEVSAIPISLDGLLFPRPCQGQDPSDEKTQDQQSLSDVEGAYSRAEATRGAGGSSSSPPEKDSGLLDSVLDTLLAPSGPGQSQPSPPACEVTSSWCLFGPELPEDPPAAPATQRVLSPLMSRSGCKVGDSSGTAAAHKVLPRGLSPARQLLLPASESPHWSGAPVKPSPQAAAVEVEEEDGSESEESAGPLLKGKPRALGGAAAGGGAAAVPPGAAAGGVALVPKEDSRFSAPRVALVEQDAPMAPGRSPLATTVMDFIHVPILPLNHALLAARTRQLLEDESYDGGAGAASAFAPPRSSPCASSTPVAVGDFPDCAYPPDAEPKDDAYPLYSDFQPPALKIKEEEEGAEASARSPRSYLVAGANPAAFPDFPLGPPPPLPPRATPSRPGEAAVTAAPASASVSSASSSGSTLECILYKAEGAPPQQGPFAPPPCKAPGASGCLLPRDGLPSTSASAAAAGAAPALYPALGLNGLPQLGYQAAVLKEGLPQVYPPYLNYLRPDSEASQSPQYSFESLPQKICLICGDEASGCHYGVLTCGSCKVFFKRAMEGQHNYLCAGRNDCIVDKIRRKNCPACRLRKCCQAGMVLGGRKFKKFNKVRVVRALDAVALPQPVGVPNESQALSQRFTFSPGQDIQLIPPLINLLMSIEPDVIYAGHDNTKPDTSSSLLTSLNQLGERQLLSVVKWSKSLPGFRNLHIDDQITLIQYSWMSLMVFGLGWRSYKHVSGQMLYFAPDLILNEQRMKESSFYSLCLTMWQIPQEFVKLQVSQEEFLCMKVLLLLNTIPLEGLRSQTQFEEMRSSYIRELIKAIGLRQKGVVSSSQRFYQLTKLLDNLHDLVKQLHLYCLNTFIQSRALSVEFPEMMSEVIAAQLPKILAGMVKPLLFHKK
Method: T-47D and MCF-7 cell lines were respectively maintained in RPMI 1640 and in DMEM medium supplemented with 10% fetal calf serum (PAA Laboratory, Les Mureaux, France). […] Normal human breast epithelial cell (HBE) primary cultures were obtained from 20 women (aged 17-50 years). […] HBE cells were maintained in HAM F10 medium (PAA Laboratory, Les Mureaux, France) containing hydrocortisone (5 ng/ml), Triiodo-L-thyronine (6.5 ng/ml), choleratoxin (10 ng/ml), transferrin (5 mg/ml), insulin (0.016 U/ml), epidermal growth factor (10 ng/ml) (Sigma, St Quentin Fallavier, France) and 5% human serum (Etablissement Français du Sang).
After seeding, cells were cultured for 24 h in serum and phenol red free medium. Then treatments were carried out in a phenol red free medium containing 5% dextran-charcoal stripped serum. […] Control cells were treated with ethanol, at 10 1:1000 final ethanol concentration alone as vehicle or E2 (10 nM).
Cells were transfected with reporter gene plasmids containing glucocorticoid and progesterone responsive elements (GRE/PRE): 1) the MMTV-Luc is a Mouse Mammary Tumor Virus Long Terminal Repeat promoter containing one GRE/PRE palindrome and three GRE/PRE hemi-palindromes upstream to firefly luciferase gene in pFC31 vector, 2) the GRELuc contains six copies of GRE/PRE palindrome upstream to firefly luciferase gene in pBL vector. When indicated, HBE cells were transfected with human PR isoforms hPR-A and hPR-B expression plasmids constructed in POP3 vectors. Rous Sarcoma Virus promoter upstream to beta galactosidase gene (pRSV-β-Gal) was transfected in each experiment as control. Transfections were performed according to the manufacturer instructions using Lipofectamine or Lipofectamine LTX Reagents (Invitrogen, Cergy-Pontoise, France) for breast cancer cell lines or HBE cells, respectively. After 24 h of transfection, breast cancer and HBE cells were treated with hormones for 24 h or 48 h, respectively. At the end of the experiment, cells were lysed and luciferase activity was determined using the Luciferase Assay System (Promega, Charbonnières-les-bains, France). Beta galactosidase activity was assessed using the Galacto Star kit (Applied Biosystems, Courtaboeuf, France) to normalize luciferase activity data.

[3] = test system: PR target genes (FASN, cyclin A, BCL2, ALPL); assay: qRT-PCR mRNA expression of PR target genes in HBE cells; assay type: cell-based, human
Method: as §1, §2, §3

[4] = test system: GR target genes (IEX-1, G0S8, cyclin A, BCL2); assay: qRT-PCR mRNA expression of GR target genes in MCF-7 cells; assay type: cell-based, human
Method: as §1, §2, §3

[5] = P and/or UPA 100 nM, E2 10 nM, 24 h

Which “proliferation (Ki67 mitotic index) stimulated by E2+P” value [1] does the source give for CC(=O)O[C@]1(C(C)=O)CCC2C3CCC4=CC(=O)CCC4=C3[C@@H](c3ccc(N(C)C)cc3)C[C@@]21C (stereo partly drawn) [UPA, 17[…]-acetoxy-11[…]-[4-N,N-dimethylamino-phenyl)-19-norpregna-4,9-diene-3,20-dione] here?
Its value is “exhibited antiproliferative activity”.

What about the “ALPL mRNA expression” value ([2]; P and/or UPA 100 nM, 6 h) of the same molecule?
Its value is “totally inhibited the strong P mediated induction of ALPL transcript”.

And the “FASN mRNA expression” value ([2]; P and/or UPA 100 nM, 24 h)?
Its value is “able to prevent P induction of FASN mRNA expression”.

And the “BCL2 mRNA expression (PR response)” value ([2]; P and/or UPA 100 nM, 24 h, p<0.01)?
The value was “antagonized the P inhibitory effect on this transcript”.

What about the “cyclin A mRNA expression (PR response)” value ([2]; P and/or UPA 100 nM, 48 h) of the same molecule?
The value was “reversed P-induced cyclin A mRNA down-regulation”.

What about the “PR agonist activity on PR target genes” value ([2]; UPA 100 nM alone) of the same molecule?
Its value is “did not display any PR agonist activity”.

And the “PR antagonist response on MMTV-Luc transactivation at 1 nM” value (PR; P 100 nM, antagonist 1 nM)?
Its value is “Partial antagonist responses”.

What about the “PR antagonist action on MMTV-Luc transactivation” value (PR; P 100 nM, antagonist 1000 to 10 nM) of the same molecule?
Its value is “potent PR antagonist actions from 1000 to 10 nM”.

What about the “progestational agonist properties on reporter gene transcription” value (PR; compound alone) of the same molecule?
The value was “did not exhibit progestational agonist properties”.

What about the “BCL2 mRNA expression (PR response)” value [3, 5] of the same molecule?
The value was “did not reverse BCL2 mRNA down-regulation induced by P”.

And the “FASN mRNA expression” value [3, 5]?
Its value is “able to prevent P induction of FASN mRNA expression”.

And the “cyclin A mRNA expression (PR response)” value ([3]; P and/or UPA 100 nM, E2 10 nM, 48 h)?
The value was “reversed P-induced cyclin A mRNA down-regulation”.

What about the “PR agonist activity on PR target genes” value ([3]; UPA 100 nM alone) of the same molecule?
Its value is “did not display any PR agonist activity”.

What about the “G0S8 mRNA expression” value ([4]; DEX and/or UPA 100 nM, 6 h, p<0.001) of the same molecule?
Its value is “anti-glucocorticoid activity was strong”.

What about the “BCL2 mRNA expression (GR response)” value ([4]; DEX and/or UPA 100 nM, 24 h) of the same molecule?
The value was “partially antagonized this effect”.

What about the “IEX-1 mRNA expression” value ([4]; DEX and/or UPA 100 nM, 24 h) of the same molecule?
Its value is “did not antagonize this response”.

And the “cyclin A mRNA expression (GR response)” value ([4]; DEX and/or UPA 100 nM, 24 h)?
Its value is “partially inhibited DEX effect on cyclin A mRNA expression”.

And the “glucocorticoid agonist activity on GR target genes” value ([4]; UPA 100 nM alone)?
Its value is “did not display any glucocorticoid agonist activity”.
